Consider 23 molecules from patent US12527775B2 (priority 2020, dated 2026).

For data set [1], the target named is human recombinant 5-HT2A receptor (Homo sapiens (Human), UniProt P28223). Kind of data set: biochemical. The settings on record: [3H]-Ketanserin 3 nmol/L, Jump-In HEK cell membrane. Format: binding. Here is the method:
Test Example 1: 5-HT2A Receptor Binding Inhibition Test
(Each Experimental Condition)
Cell membrane: 15 μg of Jump-In HEK cell membrane (expressing human recombinant 5-HT2A receptor) per well
Assay buffer: Tris-HCl 50 mmol/L (pH 7.4) containing NaCl 120 mmol/L, MgCl2·6H2O 1 mmol/L, KCl 5 mmol/L, 0.1% BSA and CaCl2 2 mmol/L
Radioactive ligand: [^3H]-Ketanserin with a final concentration of 3 nmol/L
(§1) Non-specific ligand: Serotonin HCl with a final concentration of 500 μmol/L
(§2) The Kd value was calculated when the lot of cell membrane was changed. […] The radioactive ligand solution was serially diluted from 16 nM at a 2-fold ratio and the count was confirmed with a liquid scintillator. […] After that, filtration was performed with Cell harvester (PerkinElmer). The radioactive ligand solution was dispensed into an empty well of the GF/B UniFilter plate at 10 μL/well. […] The GF/B UniFilter plate was allowed to stand overnight at room temperature. […] The Saturation curve was drawn from the measured value, and the Kd value was calculated from the slope of the Scatchard Plot.
(§3) (Binding Test of the Compound According to the Present Invention)
(§4) After that, filtration was performed with Cell harvester (PerkinElmer).

Data set [2] concerns the target human recombinant 5-HT2C receptor (Homo sapiens (Human), UniProt P28335). The data set is described as follows: biochemical. Format: binding. Here is the method: Test Example 2: 5-HT2C Receptor Binding Inhibition Test
(Each experimental condition)
Cell membrane: 0.5 μg of Jump-In HEK cell membrane (expressing human recombinant 5-HT2C receptor) per well
Assay buffer: Tris-HCl 50 mmol/L (pH 7.4) containing NaCl 120 mmol/L, MgCl2·6H2O 1 mmol/L, KCl 5 mmol/L, 0.1% BSA and CaCl2) 2 mmol/L
Radioactive ligand: [^3H]-Mesulergine with a final concentration of 1 nmol/L
as §1, §2, §3, §4

For the next data set, the target named is hERG channel (IKr) (Homo sapiens (Human), UniProt Q12809). The data set is described as follows: hERG test (automated whole cell patch clamp, IKr). It is filed as cell-based. The settings on record: CHO cells expressing hERG channel, pH 7.4, compound concentration of 3 μmol/L, read-out: hERG inhibition rate (tail peak current IKr). The text has this:
Test Example 3: hERG Test
For the purpose of assessing risk of an electrocardiogram QT interval prolongation of the compound according to the present invention, effects of the compound according to the present invention on delayed rectifier K^+ current (IKr), which plays an important role in the ventricular repolarization process, was studied using CHO cells expressing human ether-a-go-go related gene (hERG) channel.
After a cell was retained at a membrane potential of −80 mV by whole cell patch clamp method using an automated patch clamp system (QPatch; Sophion Bioscience A/S) and gave a leak potential of −50 mV, IKr induced by depolarization pulse stimulation at +20 mV for 2 seconds, and further, repolarization pulse stimulation at −50 mV for 2 seconds, was recorded. A vehicle, which was the 0.1% dimethyl sulfoxide solution in extracellular solution (NaCl: 145 mmol/L, KCl: 4 mmol/L, CaCl2: 2 mmol/L, MgCl2: 1 mmol/L, glucose:10 mmol/L, HEPES (4-(2-hydroxyethyl)-1-piperazineethanesulfonic acid): 10 mmol/L, pH7.4), or the compound according to the present invention had been dissolved at an objective concentration in the extracellular solution, each of the extracellular solution was applied to the cell at room temperature for 15 minutes or more. From the recording IKr, an absolute value of the tail peak current was measured based on the current value at the resting membrane potential using analysis software (QPatch Assay software; Sophion Bioscience A/S). The % inhibition of the tail peak current after application of the compound according to the present invention relative to the tail peak current after application of the vehicle was calculated, and further correction was performed using the inhibition rate result of the negative control to assess influence of the compound according to the present invention on IKr.
Background: The hERG channel carries a current that helps repolarise heart muscle cells.

[3] abbreviates: class symbols, read-out: h-5-HT2A Ki.
Where [4] appears, read: human serotonin 5-HT2C receptor binding, [3H]-Mesulergine, read-out: h-5-HT2C Ki.
[5] abbreviates: read-out: human serotonin 5-HT2A receptor binding activity, Ki.
[6] abbreviates: [3H]-Mesulergine 1 nmol/L, Jump-In HEK cell membrane, read-out: human serotonin 5-HT2C receptor binding activity, Ki.

Where two headings read alike, the source gives them in different places.

human recombinant 5-HT2C receptor, sequence (P28335 whole entry, looked up): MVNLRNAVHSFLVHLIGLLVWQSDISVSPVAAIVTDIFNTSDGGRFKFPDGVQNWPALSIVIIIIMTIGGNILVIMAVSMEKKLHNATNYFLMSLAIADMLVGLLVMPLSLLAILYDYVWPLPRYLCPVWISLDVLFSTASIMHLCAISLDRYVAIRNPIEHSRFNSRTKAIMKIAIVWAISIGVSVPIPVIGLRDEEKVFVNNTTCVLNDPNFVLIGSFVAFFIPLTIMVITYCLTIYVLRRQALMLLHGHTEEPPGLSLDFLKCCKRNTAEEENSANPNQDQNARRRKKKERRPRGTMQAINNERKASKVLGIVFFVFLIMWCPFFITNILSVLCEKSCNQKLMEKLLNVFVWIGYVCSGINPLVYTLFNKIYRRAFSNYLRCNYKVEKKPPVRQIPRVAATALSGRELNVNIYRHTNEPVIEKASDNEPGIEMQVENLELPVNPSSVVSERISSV
hERG channel (IKr), sequence (Q12809 whole entry): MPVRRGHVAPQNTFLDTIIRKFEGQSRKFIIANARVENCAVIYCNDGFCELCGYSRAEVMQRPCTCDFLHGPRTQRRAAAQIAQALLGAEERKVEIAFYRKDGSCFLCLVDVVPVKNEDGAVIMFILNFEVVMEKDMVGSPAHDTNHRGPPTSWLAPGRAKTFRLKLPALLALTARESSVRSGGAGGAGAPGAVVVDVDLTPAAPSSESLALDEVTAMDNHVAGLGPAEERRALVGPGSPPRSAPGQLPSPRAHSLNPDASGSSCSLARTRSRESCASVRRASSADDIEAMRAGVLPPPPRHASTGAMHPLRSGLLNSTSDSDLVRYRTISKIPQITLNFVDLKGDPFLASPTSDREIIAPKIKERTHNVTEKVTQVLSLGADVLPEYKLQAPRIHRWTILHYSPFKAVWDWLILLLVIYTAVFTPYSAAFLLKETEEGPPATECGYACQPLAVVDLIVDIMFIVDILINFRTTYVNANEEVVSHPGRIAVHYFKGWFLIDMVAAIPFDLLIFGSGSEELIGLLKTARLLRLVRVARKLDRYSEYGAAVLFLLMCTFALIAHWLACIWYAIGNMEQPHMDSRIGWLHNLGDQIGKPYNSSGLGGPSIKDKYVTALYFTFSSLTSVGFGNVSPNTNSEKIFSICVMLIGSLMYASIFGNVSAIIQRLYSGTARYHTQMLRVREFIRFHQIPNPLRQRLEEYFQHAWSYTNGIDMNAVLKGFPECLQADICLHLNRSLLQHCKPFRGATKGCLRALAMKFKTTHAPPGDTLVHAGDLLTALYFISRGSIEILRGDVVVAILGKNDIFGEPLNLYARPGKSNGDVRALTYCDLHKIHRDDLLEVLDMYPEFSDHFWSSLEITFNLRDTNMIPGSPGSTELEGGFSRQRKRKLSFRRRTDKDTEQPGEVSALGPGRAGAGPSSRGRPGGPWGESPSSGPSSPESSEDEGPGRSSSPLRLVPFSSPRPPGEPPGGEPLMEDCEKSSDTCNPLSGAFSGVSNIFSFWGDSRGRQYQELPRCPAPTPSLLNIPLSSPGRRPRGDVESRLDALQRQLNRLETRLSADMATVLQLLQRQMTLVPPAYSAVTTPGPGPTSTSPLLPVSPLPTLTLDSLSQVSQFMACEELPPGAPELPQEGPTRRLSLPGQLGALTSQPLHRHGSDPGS

What is called Ki is a measure of affinity in units of concentration, obtained from inhibition or displacement. As for `CC(C)CNc1ccc(CNC(=O)N(Cc2ccc(F)cn2)C2CCN(C)CC2)cc1` [Compound I-112], the Ki in data set [1] (setting [3]) and in data set [2] (setting [4]) was under 0.01 µM each time.

As for `CN1CCC(N(Cc2ccc(F)cn2)C(=O)NCc2ccc(OC3CC3)cc2)CC1` [Compound I-113], the Ki in data set [1] (setting [3]) is under 0.01 µM; in data set [2] (setting [4]), 0.01 to 0.1 µM.

Consider `CC(C)COc1ccc(CNC(=O)N(Cc2ccc(F)cn2)[C@H]2CCNC[C@H]2F)cc1` [Compound I-115], for which the inhibitory constant (Ki) in data set [1] (setting [3]) and in data set [2] (setting [4]) was under 0.01 µM in each case.

Take `CCc1ccc(CNC(=O)N(Cc2ccc(F)cn2)C2CCN(C)CC2)cc1` [Compound I-116]: the Ki in data set [1] (setting [5]) stood at 0.00145 µM; in data set [2] (setting [6]) it was 0.0122 µM.

On to `CN1CCC(N(Cc2ccc(F)cn2)C(=O)NCc2ccc(OCC(F)(F)C(F)F)cc2)CC1` [Compound I-117], for which the inhibition constant Ki in data set [1] (setting [3]) and in data set [2] (setting [4]) was under 0.01 µM in each case.

Consider `CC(C)COc1ccc(CNC(=O)N(Cc2ccn(C(F)F)n2)C2CCN(C)CC2)cc1` [Compound I-118], for which the Ki in data set [1] (setting [3]) is under 0.01 µM; in data set [2] (setting [4]) it was 0.01 to 0.1 µM.

As to `CCCOc1ccc(CNC(=O)N(Cc2ccc(F)cn2)[C@H]2CCNC[C@H]2F)cc1` [Compound I-119], the Ki in data set [1] (setting [3]) and in data set [2] (setting [4]) was under 0.01 µM in each case.

Regarding `Cc1ccc(CNC(=O)N(Cc2ccc(F)cn2)[C@H]2CCN(C)CC23CC3)cc1` [Compound I-120], the Ki in data set [1] (setting [3]) and in data set [2] (setting [4]) was under 0.01 µM in each case.

In the case of `CN1CCC(N(Cc2ccc(F)cn2)C(=O)NCc2ccc(N(C)C)cc2)CC1` [Compound I-121], the Ki was 0.01 to 0.1 µM in data set [1] (setting [3]) and over 0.1 µM in data set [2] (setting [4]).

For the molecule `CCCOc1ccc(CNC(=O)N(Cc2ccn(C)n2)[C@H]2CCNC[C@H]2F)cc1` [Compound I-122], the Ki was under 0.01 µM in data set [1] (setting [3]) and 0.01 to 0.1 µM in data set [2] (setting [4]).

For the molecule `CCCOc1ccc(CNC(=O)N(Cc2cc(C)n(C)n2)[C@H]2CCNC[C@H]2F)cc1` [Compound I-123], the Ki in data set [1] (setting [3]) was under 0.01 µM; in data set [2] (setting [4]) it was 0.01 to 0.1 µM.

In the case of `CC(C)COc1ccc(CNC(=O)N(Cc2ccn(C)c2)[C@H]2CCNC[C@H]2F)cc1` [Compound I-124], the Ki is 0.00069 µM in data set [1] (setting [5]) and 0.00222 µM in data set [2] (setting [6]).

As to `CN1CCC(N(Cc2ccc(F)cn2)C(=O)NCc2ccc(C3CC3)cc2)CC1` [Compound I-125], the Ki in data set [1] (setting [3]) was under 0.01 µM; in data set [2] (setting [4]), 0.01 to 0.1 µM.

In the case of `CCCOc1ccc(CNC(=O)N(Cc2cc(C)n(C)n2)[C@H]2CCN(C)CC23CC3)cc1` [Compound I-126], the Ki in data set [1] (setting [5]) amounted to 0.00192 µM; in data set [2] (setting [6]), 0.00109 µM.

With `CCCOc1ccc(CNC(=O)N(Cc2cc(C)n(C)n2)[C@@H]2CCN(C)CC23CC3)cc1` [Compound I-127], the Ki in data set [1] (setting [3]) and in data set [2] (setting [4]) was over 0.1 µM each time.

What is called inhibition is the share of the control response that was lost under treatment. For `CC(C)CNc1ccc(CNC(=O)N(Cc2ccc(F)cn2)[C@H]2CCNC[C@H]2F)cc1` [Compound I-129], the figures for the inhibitory constant (Ki) in data set [1] (setting [5]) and in data set [2] (setting [6]) were 0.00085 µM and 0.00151 µM, respectively. Besides, the inhibition at 3 μmol/L at hERG channel (IKr) is 31.4%.

In the case of `COCc1ccc(CNC(=O)N(Cc2ccc(C)cn2)C2CCN(C)CC2)cc1` [Compound I-130], the Ki in data set [1] (setting [5]) was found to be 0.0153 µM; in data set [2] (setting [6]), 0.348 µM.

In the case of `Cc1cc(CN(C(=O)NCc2ccc(OCC(C)C)cc2)[C@H]2CCNC[C@H]2F)nn1C` [Compound I-133], the inhibition at 3 μmol/L at hERG channel (IKr) stood at 6.6%.

With `CCCOc1ccc(CNC(=O)N(Cc2ccn(C)c2)[C@H]2CCNC[C@H]2F)cc1` [Compound I-134], the Ki was 0.000475 µM in data set [1] (setting [5]) and 0.0032 µM in data set [2] (setting [6]). In addition, the inhibition at 3 μmol/L at hERG channel (IKr) is 31.2%.

As to `CCCOc1ccc(CNC(=O)N(Cc2cc(C)n(C)n2)[C@H]2CCN(C)C[C@H]2F)cc1` [Compound I-139], the Ki in data set [1] (setting [5]) was found to be 0.00293 µM; in data set [2] (setting [6]) it was 0.0111 µM. For the same molecule, on hERG channel (IKr), the inhibition at 3 μmol/L turned out to be 14.2%.

With `CCCOc1ccc(CNC(=O)N(Cc2ccn(C)c2)[C@H]2CCN(C)C[C@H]2F)cc1` [Compound I-141], the inhibition at 3 μmol/L at hERG channel (IKr) was found to be 49.3%.

Consider `CC(C)COc1ccc(CNC(=O)N(Cc2cc(CF)n(C)n2)[C@H]2CCN(C)C[C@H]2F)cc1` [Compound I-146], for which the values for the Ki in data set [1] (setting [5]) and in data set [2] (setting [6]) were 0.00194 µM and 0.00496 µM, respectively.

As for `CC(C)CN(C)c1ccc(CNC(=O)N(Cc2ccc(F)cn2)[C@H]2CCN(C)C[C@H]2F)cc1` [Compound I-147], the Ki in data set [1] (setting [5]) stood at 0.000758 µM; in data set [2] (setting [6]), 0.00212 µM.
